Columns and labels:
[1] = system: Rb-negative tumors; conditions: reported by Michaud et al., Cancer Res. 70:3228-3238 (2010); cited from earlier work
[2] = Aqueous solubility / achievable solution concentration; type: physicochemical; conditions: free base; for aqueous IV or parenteral solution at therapeutic dosage levels
Source text: Gedatolisib is a pan-class I isoform PI3K/mTOR inhibitor with high potency (NCT02626507, Apr. 24, 2020). The chemical synthesis of gedatolisib is disclosed in U.S. Pat. Nos. 8,039,469; 8,217,036; 8,445,486; 8,575,159; 8,748,421; 8,859,542; 9,174,963; 10,022,381, which are hereby incorporated by reference in their entirety. […] Accordingly, formulations that allow for therapeutic dosage levels have been developed. The formulations include gedatolisib, or a methanesulphonate salt thereof, methanesulphonic acid, and water. […] Another formulation disclosed is gedatolisib, or an ethanesulphonate salt thereof, ethanesulphonic acid and water.

[3] = system: patients with ER+/HER2− metastatic breast cancer; test: Phase 1b trial, expansion portion: gedatolisib plus palbociclib plus fulvestrant or letrozole; type: in vivo, human; conditions: for Overall Response Rate: partial objective response; for # of Partial Responses: patients who failed 2 or more prior lines of therapy; for median duration of treatment, Arm D relative to Arm C: 3 weeks on/1 week off vs weekly
Source text: To evaluate this hypothesis, Pfizer initiated a Phase 1b trial dose-finding trial with a four-armed expansion portion for safety and efficacy to evaluate gedatolisib when added to either the standard doses of palbociclib plus letrozole or palbociclib plus fulvestrant in patients with ER+/HER2− metastatic breast cancer. PI3K mutation status was not used as an eligibility criterion. Patient enrollment for the trial is complete. A preliminary analysis for the 103 patients enrolled in the expansion portion of the Phase 1b clinical trial, as of the database cutoff date of Jan. […] 1. Objectives
(§1) This is a Phase 1b, multicenter, open-label, study in patients with mBC. This study has both a dose escalation and expansion portion. The dose escalation portion will identify the MTD of the combination of gedatolisib plus palbociclib/letrozole and gedatolisib plus palbociclib/fulvestrant. The expansion portion will estimate the objective response rate of the combination of gedatolisib plus palbociclib/letrozole and the combination of gedatolisib plus palbociclib/fulvestrant.
The study population for the dose escalation and the dose expansion consists of patients of any menopausal status with ER-positive, HER2-negative, metastatic or locally-recurrent/advanced breast cancer (mBC).
Once the MTD of each combination was determined this triggers the initiation of the expansion portion, which comprises 4 arms, as follows: (1) Arm A: first-line endocrine-based therapy; (2) Arm B: second- or third-line endocrine-based therapy, without prior palbociclib (or other CDK inhibitor) therapy; (3) Arm C: second- or third-line endocrine-based therapy with prior exposure to palbociclib (or other CDK inhibitor) therapy, in which gedatolisib is administered once weekly for four weeks; and (4) Arm D: second or third line endocrine based therapy with progression on palbociclib (or other CDK inhibitor) therapy (as the most recent regimen), in which gedatolisib is administered on a three weeks on/one week off (3:1) schedule.
All cycles are 28 days in length. Gedatolisib is administered IV weekly on Days 1, 8, 15 and 22 of each cycle (except for Arm D, in which gedatolisib is administered on Days 1, 8 and 15 of each cycle), palbociclib is administered at 125 mg/day orally continuously dosed for 3 weeks followed by 1 week off, repeated at each subsequent cycle. Letrozole 2.5 mg daily is administered orally on a continuous basis (daily) and fulvestrant is administered at a dose of 500 mg intramuscularly on Cycle 1 Day 1, Cycle 1 Day 15, Cycle 2 Day 1, and then on […] of each subsequent cycle (±3 days).
Gedatolisib was administered weekly as an IV infusion over approximately 30 minutes. (Dose Escalation; Dose Expansion: Arm A, Arm B and Arm C).
In Arm D of the Dose Expansion portion, gedatolisib was administered on a 3 week on/one week off schedule as an IV infusion over approximately 30 minutes. No premedication was required.
The coprimary efficacy endpoints of the study were (1) first cycle Dose-Limiting Toxicities (DLTs); and (2) Objective response (OR) as assessed by the Investigator.
The secondary efficacy endpoints of the study were: • 1) Safety including adverse events as characterized by type, frequency, severity, timing, seriousness and relationship to study therapy and laboratory abnormalities as characterized by type, frequency, severity and timing. • 2) Tumor response for the dose escalation portion of the study. • 3) DR and PFS (as assessed using the RECIST v 1.1) for the expansion portion of the study. • 4) QTc interval. • 5) Single and multiple dose PK parameters of gedatolisib and palbociclib. Multiple dose PK parameters of fulvestrant and letrozole (Dose Escalation portion only). • 6) Single and multiple dose PK parameters of gedatolisib (Dose Expansion portion only). 7. Results
Arm D patients received gedatolisib (180 mg IV three weeks on/one week off). […]

[4] = Stability of crystalline form on storage; type: physicochemical; conditions: 25° C. and 60% Relative Humidity (RH)
Source text: Gedatolisib is a pan-class I isoform PI3K/mTOR inhibitor with high potency (NCT02626507, Apr. 24, 2020). The chemical synthesis of gedatolisib is disclosed in U.S. Pat. Nos. 8,039,469; 8,217,036; 8,445,486; 8,575,159; 8,748,421; 8,859,542; 9,174,963; 10,022,381, which are hereby incorporated by reference in their entirety. […] Accordingly, formulations that allow for therapeutic dosage levels have been developed.

[5] = aqueous formulation with methanesulphonic acid or ethanesulphonic acid; WO2019038657; cited from earlier work
[6] = system: MCF7 xenograft model (ER+/HER2−/PIK3CA mutant); conditions: cited from earlier work
[7] = Phase 1b trial, dose escalation portion: maximum tolerated dose; type: in vivo, human; conditions: IV, in triplet combination with palbociclib and letrozole or fulvestrant
Source text: The primary objective of the study was to assess the safety, tolerability, and maximum tolerated dose (MTD) of the triplet combination of gedatolisib added to either the standard dose of the palbociclib/letrozole or palbociclib/fulvestrant.
as §1
The dose escalation portion of the study initially assess safety and tolerability of the 180 mg/week dose of gedatolisib plus standard doses of palbociclib/letrozole or 180 mg/week dose of gedatolisib plus standard doses of palbociclib/fulvestrant. The dose escalation portion then explore escalating doses of gedatolisib plus each regimen. During the dose escalation 10 DLT evaluable patients are treated at the expected MTD.
The conventional approach to determining the dosing schedule for a therapeutic regimen for cancer patients is to determine the maximum tolerated dose in a Phase 1 clinical trial. […]

[8] = Arm C, weekly, failed 2 or more prior lines of therapy
[9] = Arm D vs Arm C, failed 2 or more prior lines of therapy
[10] = Arm D, 3 weeks on/1 week off, DIPT < 180 days
[11] = Arm D, 3 weeks on/1 week off, DIPT < 365 days
[12] = Arm D, 3 weeks on/1 week off, failed 2 or more prior lines of therapy

SMILES: CC(=O)c1c(C)c2cnc(Nc3ccc(N4CCNCC4)cn3)nc2n(C2CCCC2)c1=O [PD-0332991, 6-acetyl-8-cyclopentyl-5-methyl-2-(5-piperazin-1-yl-pyridin-2-ylammino)-8H-pyrido-[2,3-d]-pyrimidin-7-one]
- activity against Rb-negative tumors [1]: inactive

SMILES: CN(C)C1CCN(C(=O)c2ccc(NC(=O)Nc3ccc(-c4nc(N5CCOCC5)nc(N5CCOCC5)n4)cc3)cc2)CC1 [gedatolisib, 1-(4-{[4-(Dimethylamino)piperidin-1-yl]carbonyl}phenyl)-3-[4-(4,6-dimorpholin-4-yl-1,3,5-triazin-2-yl)phenyl]urea]
- water solubility [2]: insufficiently water soluble
- Median Duration of Gedatolisib (DGT) Treatment ([3]; Arm C, weekly gedatolisib with palbociclib and fulvestrant, DIPT < 180 days): 81 days
- Median Duration of Gedatolisib (DGT) Treatment ([3]; Arm C, weekly gedatolisib with palbociclib and fulvestrant, DIPT < 365 days): 131 days
- Ratio of median DIPT vs. DGT ([3]; Arm C, weekly, DIPT < 180 days): 0.8
- Overall Response Rate ([3]; Arm C, weekly, DIPT < 180 days): 0%
- Overall Response Rate ([3]; Arm C, weekly, DIPT < 180 days, listed as Gedatolisib): 0%
- Ratio of median DIPT vs. DGT ([3]; Arm C, weekly, DIPT < 365 days): 0.9
- Overall Response Rate ([3]; Arm C, weekly, DIPT < 365 days): 15%
- Overall Response Rate ([3]; Arm C, weekly, DIPT < 365 days, listed as Gedatolisib): 15%
- Mean Progression Free Survival [3, 8]: 233
- Objective Response Rate [3, 8]: 32%
- # of Partial Responses ([3]; Arm C, weekly, 19 evaluable): 6
- Mean Progression Free Survival, Odds Ratio [3, 9]: 2.28
- Objective Response Rate, Odds Ratio [3, 9]: 2.4
- Objective Response Rate, Odds Ratio ([3]; Arm D vs Arm C, failed 2 or more prior lines of therapy, listed as Gedatolisib): 2.44
- Ratio of median DIPT vs. DGT [3, 10]: 2.6
- Overall Response Rate [3, 10]: 71%
- Overall Response Rate ([3]; Arm D, 3 weeks on/1 week off, DIPT < 180 days, listed as Gedatolisib): 71%
- Ratio of median DIPT vs. DGT [3, 11]: 1.8
- Overall Response Rate [3, 11]: 73%
- Overall Response Rate ([3]; Arm D, 3 weeks on/1 week off, DIPT < 365 days, listed as Gedatolisib): 73%
- Mean Progression Free Survival [3, 12]: 531
- Objective Response Rate [3, 12]: 78%
- # of Partial Responses ([3]; Arm D, 3 weeks on/1 week off, 9 evaluable): 7
- Median Duration of Gedatolisib (DGT) Treatment ([3]; Arm D, gedatolisib 180 mg IV 3 weeks on/1 week off with palbociclib and fulvestrant, DIPT < 180 days): 270 days
- Median Duration of Gedatolisib (DGT) Treatment ([3]; Arm D, gedatolisib 180 mg IV 3 weeks on/1 week off with palbociclib and fulvestrant, DIPT < 365 days): 276 days
- Median progression free survival ([3]; Arm D: prior endocrine therapy plus CDK4/6 inhibitor, gedatolisib 3 weeks on/1 week off with palbociclib and fulvestrant): 13.2 months
- clinical benefit rate (CBR) ([3]; expansion portion, all arms, 88 evaluable patients, confirmed PR or stable disease for 24 weeks, cutoff Jan. 11, 2021): 75%
- objective response rate (ORR) ([3]; expansion portion, all arms, 88 evaluable patients, confirmed or unconfirmed PR, with palbociclib plus letrozole or fulvestrant, cutoff Jan. 11, 2021, preliminary analysis): 60%
- median duration of treatment, Arm D relative to Arm C ([3]; patients who progressed on immediate prior therapy in ≤6 months): more than 3 times
- median duration of treatment, Arm D relative to Arm C ([3]; patients who progressed on immediate prior therapy in ≤12 months): more than two times longer
- chemically and physically stable for [4]: up to 3 years
- solution concentration achieved (clear, essentially particle-free solution) [5]: up to 30 mg/ml
- time tumors remained dormant without further therapy ([6]; after triplet therapy (gedatolisib, palbociclib, fulvestrant)): up to 90 days
- tumor response ([6]; combination of gedatolisib with palbociclib and fulvestrant, Pfizer internal preclinical study): durable tumor regressions
- time for tumors to regress to minimal volumes ([6]; triplet therapy (gedatolisib, palbociclib, fulvestrant)): ≤ 20 days
- maximum tolerated dose [7]: 180 mg weekly

From patent publication US12350276B2, “Methods for the treatment of cancer using 1-(4-{[4-(dimethylamino)piperidin-1-yl]carbonyl}phenyl)-3-[4-(4,6-dimorpholin-4-yl-1,3,5-triazin-2-yl)phenyl]urea” (Celcuity Inc., priority 2021, dated 2025)
